According to patent US10344049B2, “Substituted steroids for the treatment of cancer” (AQUAVAN TECHNOLOGY CO., LTD., priority 2017, dated 2019):
Like-named read-outs stand apart in the source and are kept apart here.

What was measured:
Format in all cases: cell-based
[1] = test system: human lung cancer cells A549; assay: Cell viability test (Resazurin), A549 cells; design: evaluation of ability to inhibit cell growth activity (IC50): scale not given here
Protocol: (§1) Cell viability was determined with Resazurin (at a final concentration of 25 μg/mL).

[2] = test system: human breast cancer cells MDA-MB-468; assay: Cell viability test (Resazurin), MDA-MB-468 cells
Protocol: as §1

[3] = test system: African green monkey kidney cells Vero; assay: Cell viability test (Resazurin), Vero cells
Protocol: as §1

[4] = test system: human breast cancer cells MDA-MB-231; assay: Cell viability test (Resazurin), MDA-MB-231 cells; design: evaluation of ability to inhibit cell growth activity (IC50): scale not given here
Protocol: as §1

[5] = test system: human liver cancer cells Mahlavu; assay: Cell viability test (Resazurin), Mahlavu cells; details: for evaluation of ability to inhibit cell growth activity (IC50): grade of the IC50 of Table 2
Protocol: as §1

[6] = test system: human colorectal cancer cells SW-480; assay: Cell viability test (Resazurin), SW480 cells; design: evaluation of ability to inhibit cell growth activity (IC50): scale not given here
Protocol: as §1

[7] = test system: human leukemia cells U937; assay: Cell viability test (Resazurin), U937 cells
Protocol: as §1

[8] = test system: human Glioblastoma cells U87-MG; assay: Cell viability test (Resazurin), U87-MG cells; design: evaluation of ability to inhibit cell growth activity (IC50): scale not given here; details: for evaluation of ability to inhibit cell growth activity (IC50): grade of the IC50 of Table 2
Protocol: as §1

[9] = A549 cells, grade of the IC50 of Table 2
[10] = Homo sapiens, A549, 48 h, A549 cells, 48 hours, 0.1% FCS, Resazurin, read-out: inhibitory concentrations of cell growth activity IC50
[11] = Homo sapiens, A549, A549 cells, grade of the IC50 of Table 2, read-out: evaluation of ability to inhibit cell growth activity (IC50)
[12] = Homo sapiens, MDA-MB-468, 48 h, MDA-MB-468 cells, 48 hours, 0.1% FCS, Resazurin, read-out: inhibitory concentrations of cell growth activity IC50
[13] = Homo sapiens, MDA-MB-468, MDA-MB-468 cells, grade of the IC50 of Table 2, read-out: evaluation of ability to inhibit cell growth activity (IC50)
[14] = Chlorocebus sabaeus, Vero, 48 h, 0.1% FCS, Resazurin, read-out: inhibitory concentrations of cell growth activity IC50
[15] = Chlorocebus sabaeus, Vero, grade of the IC50 of Table 2, read-out: evaluation of ability to inhibit cell growth activity (IC50)
[16] = Homo sapiens, MDA-MB-231, 48 h, MDA-MB-231 cells, 48 hours, 0.1% FCS, Resazurin, read-out: inhibitory concentrations of cell growth activity IC50
[17] = Homo sapiens, MDA-MB-231, MDA-MB-231 cells, grade of the IC50 of Table 2, read-out: evaluation of ability to inhibit cell growth activity (IC50)
[18] = MDA-MB-231 cells, grade of the IC50 of Table 2
[19] = Homo sapiens, Mahlavu, 48 h, 0.1% FCS, Resazurin, read-out: inhibitory concentrations of cell growth activity IC50
[20] = Homo sapiens, Mahlavu, grade of the IC50 of Table 2, read-out: evaluation of ability to inhibit cell growth activity (IC50)
[21] = Homo sapiens, SW480, 48 h, SW480 cells, 48 hours, 0.1% FCS, Resazurin, read-out: inhibitory concentrations of cell growth activity IC50
[22] = Homo sapiens, SW480, SW480 cells, grade of the IC50 of Table 2, read-out: evaluation of ability to inhibit cell growth activity (IC50)
[23] = SW480 cells, grade of the IC50 of Table 2
[24] = Homo sapiens, U-937, 48 h, U937 cells, 48 hours, 0.1% FCS, Resazurin, read-out: inhibitory concentrations of cell growth activity IC50
[25] = Homo sapiens, U-937, U937 cells, grade of the IC50 of Table 2, read-out: evaluation of ability to inhibit cell growth activity (IC50)
[26] = Homo sapiens, U-87 MG, 48 h, 0.1% FCS, Resazurin, read-out: inhibitory concentrations of cell growth activity IC50
[27] = Homo sapiens, U-87 MG, grade of the IC50 of Table 2, read-out: evaluation of ability to inhibit cell growth activity (IC50)
[28] = MDA-MB-468 cells, grade of the IC50 of Table 2
[29] = MDA-MB-468 cells, 48 hours, 0.1% FCS, Resazurin, read-out: inhibitory concentrations of cell growth activity IC50
[30] = MDA-MB-468 cells, grade of the IC50 of Table 2, read-out: evaluation of ability to inhibit cell growth activity (IC50)
[31] = MDA-MB-231 cells, grade of the IC50 of Table 2, read-out: evaluation of ability to inhibit cell growth activity (IC50)
[32] = SW480 cells, 48 hours, 0.1% FCS, Resazurin, read-out: inhibitory concentrations of cell growth activity IC50
[33] = SW480 cells, grade of the IC50 of Table 2, read-out: evaluation of ability to inhibit cell growth activity (IC50)
[34] = 48 hours, 0.1% FCS, Resazurin, read-out: inhibitory concentrations of cell growth activity IC50
[35] = grade of the IC50 of Table 2, read-out: evaluation of ability to inhibit cell growth activity (IC50)
[36] = A549 cells, 48 hours, 0.1% FCS, Resazurin, read-out: inhibitory concentrations of cell growth activity IC50
[37] = A549 cells, grade of the IC50 of Table 2, read-out: evaluation of ability to inhibit cell growth activity (IC50)
[38] = MDA-MB-231 cells, 48 hours, 0.1% FCS, Resazurin, read-out: inhibitory concentrations of cell growth activity IC50
[39] = U937 cells, 48 hours, 0.1% FCS, Resazurin, read-out: inhibitory concentrations of cell growth activity IC50
[40] = U937 cells, grade of the IC50 of Table 2, read-out: evaluation of ability to inhibit cell growth activity (IC50)

SMILES | evaluation of ability to inhibit cell growth activity (IC50) [1, 9] | IC50 [1, 10] | IC50 [1, 11] | IC50 [2, 12] | IC50 [2, 13] | IC50 [3, 14] | IC50 [3, 15] | IC50 [4, 16] | IC50 [4, 17] | evaluation of ability to inhibit cell growth activity (IC50) [4, 18] | IC50 [5, 19] | IC50 [5, 20] | IC50 [6, 21] | IC50 [6, 22] | IC50 [7, 24] | IC50 [7, 25] | IC50 [8, 26] | IC50 [8, 27] | evaluation of ability to inhibit cell growth activity (IC50) [8] | IC50 [2, 29] | also measured
CC(=O)O[C@H]1C=C2[C@@H](CC[C@H](OC(C)=O)C2(C)C)[C@]2(C=O)CC[C@]3(C)[C@@H]([C@H](C)C/C=C/C(C)(C)O)CC[C@@]3(C)[C@H]12 [Compound 4] | ◯ | 12.9 µM | 8 to 16 µM | 18.6 µM | 16 to 64 µM | 35.3 µM | 16 to 64 µM | 12.1 µM | 8 to 16 µM | ◯ | 29.4 µM | 16 to 64 µM | 13 µM | 8 to 16 µM | 8.08 µM | 8 to 16 µM | 14.4 µM | 8 to 16 µM | ◯ |  | evaluation of ability to inhibit cell growth activity (IC50) [6, 23]: ◯; evaluation of ability to inhibit cell growth activity (IC50) ([7]; U937 cells, grade of the IC50 of Table 2): ◯
CC(=O)O[C@@H](C=C(C)C)C[C@@H](C)[C@H]1CC[C@@]2(C)[C@@H]3[C@@H](O)C=C4[C@@H](CC[C@H](O)C4(C)C)[C@]3(C=O)CC[C@]12C [Compound 10] | ◯ | 9.81 µM | 8 to 16 µM | 20.3 µM | 16 to 64 µM | 19.2 µM | 16 to 64 µM | 10.7 µM | 8 to 16 µM | ◯ | 19.4 µM | 16 to 64 µM | 17.9 µM | 16 to 64 µM | 5.92 µM | < 8 µM | 10.7 µM | 8 to 16 µM | ◯ |  | 
CC(=O)O[C@H]1C=C2[C@@H](CC[C@H](O)C2(C)C)[C@]2(C=O)CC[C@]3(C)[C@@H]([C@H](C)C[C@H](C=C(C)C)OC(C)=O)CC[C@@]3(C)[C@H]12 [Compound 7] |  | 6.26 µM | < 8 µM | 13.9 µM | 8 to 16 µM | 23.2 µM | 16 to 64 µM | 6 µM | < 8 µM |  | 11.9 µM | 8 to 16 µM | 13.5 µM | 8 to 16 µM | 5.52 µM | < 8 µM | 8.51 µM | 8 to 16 µM | ◯ |  | evaluation of ability to inhibit cell growth activity (IC50) [2, 28]: ◯; evaluation of ability to inhibit cell growth activity (IC50) [5]: ◯; evaluation of ability to inhibit cell growth activity (IC50) [6, 23]: ◯
COC1O[C@]23C=C[C@@H]4[C@@]1(CC[C@]1(C)[C@@H]([C@H](C)C[C@@H](O)C=C(C)C)CC[C@@]41C)[C@@H]2CC[C@H](O)C3(C)C (stereo partly drawn) [Compound 21] |  | > 256 µM | > 256 µM |  |  | > 256 µM | > 256 µM | 130 µM |  |  | > 256 µM | > 256 µM |  |  | 6.19 µM | < 8 µM |  |  |  | 35.4 µM | IC50 [2, 30]: 16 to 64 µM; IC50 [4, 31]: 64 to 256 µM; IC50 [6, 32]: 118 µM; IC50 [6, 33]: 64 to 256 µM; IC50 [8, 34]: 83.5 µM; IC50 [8, 35]: 64 to 256 µM
CC(=O)O[C@H]1C=C2[C@@H](CC[C@H](OC(C)=O)C2(C)C)[C@]2(C=O)CC[C@]3(C)[C@@H]([C@H](C)C[C@@H](O)C=C(C)C)CC[C@@]3(C)[C@H]12 [Compound 5] | ◯ | 12 µM | 8 to 16 µM | 16.8 µM | 16 to 64 µM | 25.3 µM | 16 to 64 µM | 8.07 µM | 8 to 16 µM | ◯ | 18.5 µM | 16 to 64 µM | 16.4 µM | 16 to 64 µM | 3.67 µM | < 8 µM | 8.8 µM | 8 to 16 µM | ◯ |  | 
CC(C)=C[C@H](O)C[C@@H](C)[C@H]1CC[C@@]2(C)[C@@H]3[C@@H](O[C@@H]4O[C@H](CO)[C@@H](O)[C@H](O)[C@H]4O)C=C4[C@@H](CC[C@H](O)C4(C)C)[C@]3(C=O)CC[C@]12C [Compound 13] |  |  |  |  |  |  |  |  |  |  |  |  |  |  |  |  |  |  |  | 58.3 µM | IC50 [1, 36]: 198 µM; IC50 [1, 37]: 64 to 256 µM; IC50 [2, 30]: 16 to 64 µM; IC50 [3, 34]: > 256 µM; IC50 [3, 35]: > 256 µM; IC50 [4, 38]: 59.4 µM; IC50 [4, 31]: 16 to 64 µM; IC50 [5, 34]: > 256 µM; IC50 [5, 35]: > 256 µM; IC50 [6, 32]: 67.2 µM; IC50 [6, 33]: 64 to 256 µM; IC50 [7, 39]: 32.5 µM; IC50 [7, 40]: 16 to 64 µM; IC50 [8, 34]: 103 µM; IC50 [8, 35]: 64 to 256 µM
CC(C)=CC(=O)C[C@@H](C)[C@H]1CC[C@@]2(C)[C@@H]3[C@@H](O)C=C4[C@@H](CC[C@H](O)C4(C)C)[C@]3(C=O)CC[C@]12C [Compound 11] |  | > 256 µM | > 256 µM | > 256 µM | > 256 µM | > 256 µM | > 256 µM | > 256 µM | > 256 µM |  | > 256 µM | > 256 µM | > 256 µM | > 256 µM | 84.2 µM | 64 to 256 µM | > 256 µM | > 256 µM |  |  | 
CC(=O)O[C@H]1C=C2[C@@H](CC[C@H](O)C2(C)C)[C@]2(C=O)CC[C@]3(C)[C@@H]([C@H](C)C[C@@H](O)C=C(C)C)CC[C@@]3(C)[C@H]12 [Compound 8] |  |  |  |  |  |  |  |  |  |  |  |  |  |  |  |  |  |  |  | 9.81 µM | IC50 [1, 36]: 4.86 µM; IC50 [1, 37]: < 8 µM; evaluation of ability to inhibit cell growth activity (IC50) [2, 28]: ◯; IC50 [3, 34]: 24.2 µM; IC50 [3, 35]: 16 to 64 µM; IC50 [4, 38]: 5.19 µM; IC50 [4, 31]: < 8 µM; IC50 [5, 34]: 11.5 µM; evaluation of ability to inhibit cell growth activity (IC50) [5]: ◯; IC50 [6, 32]: 13.8 µM; evaluation of ability to inhibit cell growth activity (IC50) [6, 23]: ◯; IC50 [7, 39]: 5.39 µM; IC50 [7, 40]: < 8 µM; IC50 [8, 34]: 7.54 µM; IC50 [8, 35]: < 8 µM
CO[C@@H]1O[C@]23C=C[C@@H]4[C@@]1(CC[C@]1(C)[C@@H]([C@H](C)C/C=C/C(C)(C)OC)CC[C@@]41C)[C@@H]2CC[C@H](O)C3(C)C [Compound 15] |  | > 256 µM | > 256 µM |  |  | > 256 µM | > 256 µM | > 256 µM | > 256 µM |  | > 256 µM | > 256 µM | > 256 µM | > 256 µM |  | < 8 µM | > 256 µM | > 256 µM |  | > 256 µM | IC50 [2, 30]: > 256 µM; IC50 [7, 39]: 4.28 µM
